In patent US8940913B2, “Herbicides” (Syngenta Crop Protection, LLC, priority 2007, dated 2015):

Assays:
Assay type in all cases: in vivo
[1] = tested on: Lolium perenne (LOLPE); experiment: Pre-emergence herbicidal activity, glasshouse pot test; conditions: 480 h, rate 250 g/ha, evaluated 20 days later, 100=total damage to plant, 0=no damage to plant
Experimental: (§1) Monocotyledonous and dicotyledonous test plants were sown in standard soil in pots. After cultivation for one day (pre-emergence) or after 10 days cultivation (post-emergence) under controlled conditions in a glasshouse, the plants were sprayed with an aqueous spray solution derived from the formulation of the technical active ingredient in 0.6 ml acetone and 45 ml formulation solution containing 10.6% Emulsogen EL (Registry number 61791-12-6), 42.2% N-methylpyrrolidone, 42.2% dipropylene glycol monomethyl ether (Registry number 34590-94-8) and 0.2% X-77 (Registry number 11097-66-8). The test plants were then grown in a greenhouse under optimum conditions until, 15 days later for post-emergence and 20 days for pre-emergence, the test was evaluated (100=total damage to plant; 0=no damage to plant). Test Plants: Alopecurus myosuroides (ALOMY), Avena fatua (AVEFA), Lolium perenne (LOLPE), Setaria faberi (SETFA), Digitaria sanguinalis (DIGSA), Echinochloa crus-galli (ECHCG)

[2] = tested on: Echinochloa crus-galli (ECHCG); experiment: as above; conditions: 480 h, rate 250 g/ha, evaluated 20 days later, 100=total damage to plant, 0=no damage to plant
Experimental: as §1

[3] = tested on: Avena fatua (AVEFA); experiment: as above; conditions: 480 h, rate 250 g/ha, evaluated 20 days later, 100=total damage to plant, 0=no damage to plant
Experimental: as §1

[4] = tested on: Digitaria sanguinalis (DIGSA); experiment: as above; conditions: 480 h, rate 250 g/ha, evaluated 20 days later, 100=total damage to plant, 0=no damage to plant
Experimental: as §1

[5] = tested on: Setaria faberi (SETFA); experiment: as above; conditions: 480 h, rate 250 g/ha, evaluated 20 days later, 100=total damage to plant, 0=no damage to plant
Experimental: as §1

[6] = tested on: Alopecurus myosuroides (ALOMY); experiment: as above; conditions: 480 h, rate 250 g/ha, evaluated 20 days later, 100=total damage to plant, 0=no damage to plant
Experimental: as §1

[7] = tested on: Lolium perenne (LOLPE); experiment: Post-emergence herbicidal activity, glasshouse pot test; conditions: 360 h, rate 125 g/ha, evaluated 15 days later, 100=total damage to plant, 0=no damage to plant
Experimental: as §1

[8] = tested on: Echinochloa crus-galli (ECHCG); experiment: as above; conditions: 360 h, rate 125 g/ha, evaluated 15 days later, 100=total damage to plant, 0=no damage to plant
Experimental: as §1

[9] = tested on: Avena fatua (AVEFA); experiment: as above; conditions: 360 h, rate 125 g/ha, evaluated 15 days later, 100=total damage to plant, 0=no damage to plant
Experimental: as §1

[10] = tested on: Digitaria sanguinalis (DIGSA); experiment: as above; conditions: 360 h, rate 125 g/ha, evaluated 15 days later, 100=total damage to plant, 0=no damage to plant
Experimental: as §1

[11] = tested on: Setaria faberi (SETFA); experiment: as above; conditions: 360 h, rate 125 g/ha, evaluated 15 days later, 100=total damage to plant, 0=no damage to plant
Experimental: as §1

[12] = tested on: Alopecurus myosuroides (ALOMY); experiment: as above; conditions: 360 h, rate 125 g/ha, evaluated 15 days later, 100=total damage to plant, 0=no damage to plant
Experimental: as §1

Structure (SMILES) | pest or weed control at 250 g/ha [1] | pest or weed control at 250 g/ha [2] | pest or weed control at 250 g/ha [3] | pest or weed control at 250 g/ha [4] | pest or weed control at 250 g/ha [5] | pest or weed control at 250 g/ha [6] | pest or weed control at 125 g/ha [7] | pest or weed control at 125 g/ha [8] | pest or weed control at 125 g/ha [9] | pest or weed control at 125 g/ha [10] | pest or weed control at 125 g/ha [11] | pest or weed control at 125 g/ha [12]
CCc1ccc(-c2ccc(Cl)c(OC)c2)cc1C1=C(O)[C@H]2[C@@H](C1=O)[C@@H]1CC[C@H]2O1 [Compound T15] | 20% | 100% | 10% | 90% | 80% | 20% | 40% | 100% | 90% | 100% | 100% | 100%
Cc1ccc(-c2cc(C)c(C3C(=O)[C@@H]4[C@H](C3=O)[C@H]3CC[C@@H]4O3)c(C)c2)cc1 (stereo partly drawn) [Compound T27] | 30% | 60% | 30% | 40% | 40% | 0% | 70% | 70% | 40% | 60% | 70% | 70%
CCc1cc(-c2ccc(C)cc2)cc(CC)c1C1C(=O)[C@@H]2[C@H](C1=O)[C@H]1CC[C@@H]2O1 (stereo partly drawn) [Compound T9] | 80% | 100% | 50% | 60% | 50% | 70% | 80% | 100% | 20% | 80% | 70% | 80%
Cc1cc(-c2ccccc2)cc(C)c1C1C(=O)[C@H]2[C@@H]3CC[C@@](C)(O3)[C@H]2C1=O (stereo partly drawn) [Compound T8] | 80% | 100% | 50% | 100% | 100% | 90% | 70% | 100% | 90% | 100% | 100% | 100%
CCc1ccc(-c2ccc(Cl)c(Cl)c2F)cc1C1=C(O)[C@H]2[C@@H](C1=O)[C@]1(C)CC[C@@]2(C)O1 [Compound T40] | 0% | 50% | 10% | 100% | 70% | 10% | 30% | 100% | 40% | 100% | 80% | 60%
Cc1cc(-c2ccccc2)cc(C)c1C1=C(OC(=O)c2c(C)noc2C)[C@H]2[C@@H](C1=O)[C@@H]1CC[C@H]2O1 [Compound P4] | 90% | 100% | 50% | 100% | 100% | 100% | 90% | 100% | 90% | 80% | 80% | 100%
Cc1cc(-c2ccc(C(F)(F)F)cc2)cc(C)c1C1C(=O)[C@@H]2[C@H](C1=O)[C@H]1CC[C@@H]2O1 (stereo partly drawn) [Compound T26] | 0% | 70% | 0% | 70% | 70% | 0% | 30% | 90% | 20% | 90% | 100% | 30%
CCc1ccc(-c2ccc(Cl)s2)cc1C1=C(O)[C@H]2[C@@H](C1=O)[C@]1(C)CC[C@@]2(C)O1 [Compound T32] | 60% | 70% | 0% | 30% | 100% | 30% | 60% | 100% | 70% | 70% | 70% | 70%
CCc1ccc(-c2ccc(Cl)cc2)cc1C1=C(O)[C@H]2[C@@H](C1=O)[C@]1(C)C=C[C@@]2(C)O1 [Compound T12] | 60% | 90% | 20% | 100% | 100% | 70% | 80% | 100% | 100% | 100% | 100% | 100%
CCc1ccc(-c2ccc(Cl)c(C(F)(F)F)c2)cc1C1=C(O)[C@H]2[C@@H](C1=O)[C@@H]1CC[C@H]2O1 [Compound T17] | 20% | 90% | 0% | 90% | 80% | 0% | 40% | 100% | 90% | 100% | 100% | 90%
Cc1cc(-c2ccccc2)cc(C)c1C1=C(OC(=O)C(C)(C)C)[C@H]2[C@@H](C1=O)[C@]1(C)CC[C@@]2(C)O1 [Compound P5] | 70% | 70% | 0% | 100% | 100% | 100% | 40% | 100% | 20% | 100% | 90% | 70%
CCc1ccc(-c2ccc(Cl)cc2Cl)cc1C1=C(O)[C@H]2[C@@H](C1=O)[C@]1(C)CC[C@@]2(C)O1 [Compound T24] | 30% | 100% | 30% | 100% | 100% | 10% | 60% | 100% | 90% | 100% | 100% | 90%
